Where a name gives a salt, the structure may show the parent alone.
Key:
IL-6 [1] = assay: LPS-induced inflammation, capsule studies: plasma IL-6; type: in vivo, male Lewis rats
Procedure: To induce intestinal inflammation, 1 mg/kg LPS was injected intraperitoneally into rats at T5 h, this timing was chosen based on the CT imaging results, to allow capsules to reach the intestines. Inflammation-free control rats were instead intraperitoneally injected with an equal volume of PBS. Controls used in this study were naïve rats (no induction of inflammation, vehicle treatment (PBS)), treatment-free rats (LPS + vehicle (PBS)), and comparative treatment control rats (induction of inflammation, treatment with 1 mg/kg oral dexamethasone solution, formulated in PEG400/polysorbate 80 in deionized water (10/9/81), at T4 h). Animal sacrifice occurred at T8 h (3 h after LPS administration). Terminal plasma and colonic tissue were subsequently excised, and levels of IL-6 quantified using the V-PLEX validated immunoassay kit.

IL-6 [2] = assay: LPS-induced inflammation, capsule studies: colonic tissue IL-6; type: in vivo, male Lewis rats; details: 1 mg/kg dexamethasone oral; targeted vs untargeted comparison, 8 h analysis
IL-6 [3] = assay: LPS-induced inflammation, ascending dose oral solution study: plasma IL-6; type: in vivo, male Lewis rats; details: 1 mg/kg dexamethasone solution, 4 hours after administration
Procedure: (§1) Male Lewis rats were fasted overnight before the day of experiment. Rats were chosen as an in vivo model in these experiments as they are commonly used for assessment of IBD investigatory treatments. […] To induce intestinal inflammation, rats were intraperitoneally injected with 1 mg/kg LPS at T1 h. Intraperitoneal injection of LPS is an accepted method for instigating inflammation in rats as pharmacodynamic endpoints. […] Controls used in this study were naïve rats (no induction of inflammation, placebo treatment (PBS)), treatment-free rats (LPS + vehicle (PBS)), and comparative treatment control rats (induction of inflammation, treatment with 1 mg/kg oral dexamethasone solution, formulated in PEG400/polysorbate 80 in deionized water (10/9/81). Rats not treated with LPS were instead injected with the same volume of PBS solution.

IL-6 [4] = assay: LPS-induced inflammation, ascending dose oral solution study: colonic tissue IL-6; type: in vivo, male Lewis rats; details: 4 hours
Procedure: as §1

rat colonic microbiota = assay: Ex vivo stability of tofacitinib in rat cecal slurry (colonic microbiota); type: in vitro ADME; details: 1 mg/mL in rat cecal slurry, anaerobic
Procedure: The cecum of healthy rats (male, n = 6) was obtained shortly following animal sacrifice and transferred to an anaerobic workstation (Electrotek 500TG workstation, Electrotek, West Yorkshire, UK) maintained at 37 °C and 70% relative humidity. The rats’ cecums were opened and fluid was collected using aseptic technique to preserve the fluid’s microbial composition. Next, the fluid was homogenised with basal media (ratio 1:4, composition as used by Hughes et al. [29] at 10,000 rpm and sieved through a mesh with 5 µm aperture.
Samples were taken at 0, 1, 2, 4, and 6 h and immediately quenched with ice-cold acetonitrile at a ratio of 1:3 to arrest microbial/enzyme activity. Quenched samples were then centrifuged (9600× g, 10 min, 4 °C) and the supernatant was collected for quantification of drug concentration using HPLC.
A mobile phase consisting of 0.1% phosphoric acid in water (A) and acetonitrile (B) was used via a gradient method, whereby %A: 95 and %B: 5 from 0.0–4.0 min; and %A: 80 and %B: 20 from 4.0–6.0 min. An Agilent Zorbax-Extend C18 column (50 × 4.6 mm, 1.8 μm) (Santa Clara, CA, USA) at 1.8 mL/min, with column temperature equilibrated at 40 ± 2 °C. […] Drug concentration was calculated by comparing the area under the curve (AUC) of the drug’s peak in samples to those produced with a calibration curve.

[5] = 1 and 10 mg/kg tofacitinib solution

Row | SMILES | plasma IL-6 levels compared to the untreated control (IL-6 [1]; 1 mg/kg dexamethasone oral, targeted vs untargeted comparison, 8 h) | plasma IL-6 compared to the untreated control (IL-6 [1]; 1 mg/kg oral dexamethasone solution, dose response study) | IL-6 concentration in colonic tissue compared to the untreated control (IL-6 [2]) | IL-6 levels in plasma compared to the LPS + vehicle control (IL-6 [3]) | colonic tissue IL-6 compared to the treatment-free control (IL-6 [4]; 1 mg/kg dexamethasone) | time stable when delivered to the cecum/colon (rat colonic microbiota) | colonic IL-6 concentrations compared to the naïve rats (IL-6 [4]; [5]) | colonic tissue IL-6 compared to 0.1 mg/kg tofacitinib (IL-6 [4]; [5])
1 | C[C@@H]1C[C@H]2[C@@H]3CCC4=CC(=O)C=C[C@]4(C)[C@@]3(F)[C@@H](O)C[C@]2(C)[C@@]1(O)C(=O)CO [dexamethasone] | significantly reduce | lowered | did not significantly alter | significantly lower | significantly lowered |  |  | 
2 | C[C@@H]1CCN(C(=O)CC#N)C[C@@H]1N(C)c1ncnc2[nH]ccc12 [tofacitinib, Tofacitinib citrate] |  |  |  |  |  | at least 6 h | no significant difference | significantly lower
